Results taken from ChEMBL document CHEMBL2440005, “Discovery and structure-activity relationships of 6-(benzoylamino)benzoxaboroles as orally active anti-inflammatory agents” (Bioorg Med Chem Lett, 2013).
Activity calls are given as the source filed them. No cut-off for these calls is given here.

Experiments:
[1] = target: Prostaglandin G/H synthase 1 (Homo sapiens) (UniProt P23219); assay: Inhibition of COX1 (unknown origin) up to 25 uM
PBMC [2] = assay: Cytotoxicity against LPS-stimulated human PBMC assessed as growth inhibition by MTT assay; assay type: cell-based
[3] = target: Rho-associated protein kinase 2 (Homo sapiens) (UniProt O75116); assay: Inhibition of ROCK2 (unknown origin) at 30 uM
[4] = target: Mitogen-activated protein kinase 3 (Homo sapiens) (UniProt P27361); assay: Inhibition of ERK1 (unknown origin) at 30 uM
[5] = target: Phosphatidylinositol 4,5-bisphosphate 3-kinase catalytic subunit delta isoform (Homo sapiens) (UniProt O00329); assay: Inhibition of PI3Kdelta (unknown origin) at 30 uM
Chain of Phosphatidylinositol 4,5-bisphosphate 3-kinase catalytic subunit delta isoform (Homo sapiens) (O00329 whole entry, canonical isoform): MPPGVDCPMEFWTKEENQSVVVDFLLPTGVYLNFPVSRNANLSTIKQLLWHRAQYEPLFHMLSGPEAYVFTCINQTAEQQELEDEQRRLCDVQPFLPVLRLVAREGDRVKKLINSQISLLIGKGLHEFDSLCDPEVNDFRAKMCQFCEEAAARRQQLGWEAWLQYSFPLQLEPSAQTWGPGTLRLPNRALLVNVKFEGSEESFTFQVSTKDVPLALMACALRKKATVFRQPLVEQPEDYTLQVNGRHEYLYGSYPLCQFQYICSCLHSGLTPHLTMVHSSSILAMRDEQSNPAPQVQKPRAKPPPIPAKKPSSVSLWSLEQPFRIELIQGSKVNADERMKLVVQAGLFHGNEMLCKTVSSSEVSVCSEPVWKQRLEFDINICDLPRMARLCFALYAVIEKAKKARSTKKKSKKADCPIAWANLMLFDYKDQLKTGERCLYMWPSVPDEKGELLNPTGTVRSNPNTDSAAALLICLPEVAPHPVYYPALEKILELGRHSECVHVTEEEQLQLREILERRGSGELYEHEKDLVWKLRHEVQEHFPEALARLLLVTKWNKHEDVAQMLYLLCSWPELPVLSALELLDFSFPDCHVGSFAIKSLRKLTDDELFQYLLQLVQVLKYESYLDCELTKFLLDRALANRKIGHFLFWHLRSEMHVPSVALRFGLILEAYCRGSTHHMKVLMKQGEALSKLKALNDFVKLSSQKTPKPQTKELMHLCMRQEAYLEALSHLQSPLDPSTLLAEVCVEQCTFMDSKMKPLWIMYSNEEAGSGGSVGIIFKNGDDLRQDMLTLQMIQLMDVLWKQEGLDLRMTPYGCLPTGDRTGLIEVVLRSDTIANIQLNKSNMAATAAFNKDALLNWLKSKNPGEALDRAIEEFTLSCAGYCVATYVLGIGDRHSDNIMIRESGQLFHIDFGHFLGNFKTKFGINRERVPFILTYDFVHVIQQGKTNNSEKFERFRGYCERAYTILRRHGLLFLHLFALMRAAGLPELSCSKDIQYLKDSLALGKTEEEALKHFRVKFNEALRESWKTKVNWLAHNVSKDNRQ

[6] = Clearance in mouse at 2 mg/kg, iv; assay type: ADME, organism-based; set-up: dose 2 mg/kg, route intravenous; settings: in vivo
[7] = target: Mitogen-activated protein kinase 13 (Homo sapiens) (UniProt O15264); assay: Inhibition of p38delta (unknown origin) at 30 uM
Chain of Mitogen-activated protein kinase 13 (Homo sapiens) (O15264 whole entry): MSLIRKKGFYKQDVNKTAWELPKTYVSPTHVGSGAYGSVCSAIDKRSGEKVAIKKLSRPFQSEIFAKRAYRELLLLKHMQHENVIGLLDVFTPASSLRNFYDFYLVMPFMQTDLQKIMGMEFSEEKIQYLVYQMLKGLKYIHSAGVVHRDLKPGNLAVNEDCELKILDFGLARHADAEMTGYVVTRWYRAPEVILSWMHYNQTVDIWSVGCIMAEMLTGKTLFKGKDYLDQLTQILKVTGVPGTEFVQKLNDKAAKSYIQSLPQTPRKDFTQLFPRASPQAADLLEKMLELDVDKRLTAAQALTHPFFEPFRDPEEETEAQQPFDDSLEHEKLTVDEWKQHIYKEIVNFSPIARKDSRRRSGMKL

Mus musculus [8] = assay: Antiinflammatory activity in mouse assessed as inhibition of LPS-induced IL-6 production at 100 mg/kg, po administered 1 hr prior to LPS challenge measured after 1 hr; assay type: functional, organism-based; set-up: dose 100 mg/kg
[9] = target: Mitogen-activated protein kinase kinase kinase 8 (Homo sapiens) (UniProt P41279); assay: Inhibition of MAP3K8 (unknown origin) at 30 uM
Chain of Mitogen-activated protein kinase kinase kinase 8 (Homo sapiens) (P41279 whole entry): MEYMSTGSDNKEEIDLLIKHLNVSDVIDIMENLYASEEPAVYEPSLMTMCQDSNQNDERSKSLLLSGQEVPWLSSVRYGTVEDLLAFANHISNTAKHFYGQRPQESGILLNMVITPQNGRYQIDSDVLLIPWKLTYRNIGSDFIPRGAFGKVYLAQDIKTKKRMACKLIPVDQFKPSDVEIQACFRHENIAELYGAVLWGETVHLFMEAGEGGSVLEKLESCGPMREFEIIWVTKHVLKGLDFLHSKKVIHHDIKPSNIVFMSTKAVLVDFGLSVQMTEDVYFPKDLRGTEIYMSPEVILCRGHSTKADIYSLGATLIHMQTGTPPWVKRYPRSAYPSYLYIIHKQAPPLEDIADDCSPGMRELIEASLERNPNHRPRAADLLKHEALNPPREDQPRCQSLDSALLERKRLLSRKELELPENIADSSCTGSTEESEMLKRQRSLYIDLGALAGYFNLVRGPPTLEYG

[10] = target: Mitogen-activated protein kinase 9 (Homo sapiens) (UniProt P45984); assay: Inhibition of JNK2 (unknown origin) at 30 uM
[11] = target: Mitogen-activated protein kinase 14 (Homo sapiens) (UniProt Q16539); assay: Inhibition of p38alpha (unknown origin) at 30 uM
Chain of Mitogen-activated protein kinase 14 (Homo sapiens) (Q16539 whole entry): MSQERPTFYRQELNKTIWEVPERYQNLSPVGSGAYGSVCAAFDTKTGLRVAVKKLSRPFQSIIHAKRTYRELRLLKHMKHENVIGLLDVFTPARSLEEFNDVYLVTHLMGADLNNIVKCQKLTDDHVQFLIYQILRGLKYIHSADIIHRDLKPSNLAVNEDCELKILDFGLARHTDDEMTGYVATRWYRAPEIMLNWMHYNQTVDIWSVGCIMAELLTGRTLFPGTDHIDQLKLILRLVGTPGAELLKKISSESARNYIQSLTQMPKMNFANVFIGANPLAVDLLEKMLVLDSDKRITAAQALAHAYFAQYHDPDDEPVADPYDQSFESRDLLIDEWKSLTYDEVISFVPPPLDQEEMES

[12] = target: Tyrosine-protein kinase JAK2 (Homo sapiens) (UniProt O60674); assay: Inhibition of JAK2 (unknown origin) at 30 uM
[13] = target: Inhibitor of nuclear factor kappa-B kinase subunit epsilon (Homo sapiens) (UniProt Q14164); assay: Inhibition of IKKepsilon (unknown origin) at 30 uM
[14] = target: Dual specificity mitogen-activated protein kinase kinase 2 (Homo sapiens) (UniProt P36507); assay: Inhibition of MEK2 (unknown origin) at 30 uM
[15] = target: Interleukin-1 receptor-associated kinase 4 (Homo sapiens) (UniProt Q9NWZ3); assay: Inhibition of IRAK4 (unknown origin) at 30 uM
[16] = target: Phosphatidylinositol 4,5-bisphosphate 3-kinase catalytic subunit alpha isoform (Homo sapiens) (UniProt P42336); assay: Inhibition of PI3Kalpha (unknown origin) at 30 uM
[17] = target: Phosphatidylinositol 4,5-bisphosphate 3-kinase catalytic subunit beta isoform (Homo sapiens) (UniProt P42338); assay: Inhibition of PI3Kbeta (unknown origin) at 30 uM
[18] = target: Prostaglandin G/H synthase 2 (Homo sapiens) (UniProt P35354); assay: Inhibition of COX2 (unknown origin) up to 25 uM
[19] = target: Tyrosine-protein kinase JAK1 (Homo sapiens) (UniProt P23458); assay: Inhibition of JAK1 (unknown origin) at 30 uM
Mus musculus [20] = assay: Antiinflammatory activity in collagen-induced arthritis mouse model at 30 mg/kg, po qd administered every other day for 20 days relative to vehicle-treated control; assay type: functional; settings: 480 h
[21] = target: Mitogen-activated protein kinase 11 (Homo sapiens) (UniProt Q15759); assay: Inhibition of p38beta (unknown origin) at 30 uM
[22] = target: Mitogen-activated protein kinase 8 (Homo sapiens) (UniProt P45983); assay: Inhibition of JNK1 (unknown origin) at 30 uM
[23] = Tmax in mouse at 4 mg/kg, po; assay type: ADME, organism-based; set-up: dose 4 mg/kg, route oral; settings: in vivo
[24] = target: MAP kinase-activated protein kinase 5 (Homo sapiens) (UniProt Q8IW41); assay: Inhibition of MAPKAPK5 (unknown origin) at 30 uM
Chain of MAP kinase-activated protein kinase 5 (Homo sapiens) (Q8IW41 whole entry): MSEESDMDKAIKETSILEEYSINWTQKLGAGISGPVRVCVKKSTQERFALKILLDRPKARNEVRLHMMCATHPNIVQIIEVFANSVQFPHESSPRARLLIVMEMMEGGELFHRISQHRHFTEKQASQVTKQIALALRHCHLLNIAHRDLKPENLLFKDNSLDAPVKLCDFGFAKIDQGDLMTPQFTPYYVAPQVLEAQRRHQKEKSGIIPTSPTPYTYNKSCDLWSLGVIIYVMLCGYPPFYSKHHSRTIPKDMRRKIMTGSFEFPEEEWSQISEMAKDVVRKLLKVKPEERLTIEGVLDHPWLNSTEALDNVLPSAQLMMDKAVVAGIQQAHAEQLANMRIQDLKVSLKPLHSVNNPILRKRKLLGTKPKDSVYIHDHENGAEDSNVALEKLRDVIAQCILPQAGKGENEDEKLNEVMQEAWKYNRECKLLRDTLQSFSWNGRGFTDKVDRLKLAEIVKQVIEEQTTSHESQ

[25] = target: Mitogen-activated protein kinase kinase kinase 7 (Homo sapiens) (UniProt O43318); assay: Inhibition of TAK1 (unknown origin) at 30 uM
[26] = target: Inhibitor of nuclear factor kappa-B kinase subunit alpha (Homo sapiens) (UniProt O15111); assay: Inhibition of IKKalpha (unknown origin) at 30 uM
[27] = target: Dual specificity mitogen-activated protein kinase kinase 1 (Homo sapiens) (UniProt Q02750); assay: Inhibition of MEK1 (unknown origin) at 30 uM
[28] = Terminal half life in mouse at 2 mg/kg, iv; assay type: ADME, organism-based; set-up: dose 2 mg/kg, route intravenous; settings: in vivo, read-out: beta t1/2 (converted)
[29] = target: Protein kinase C beta type (Homo sapiens) (UniProt P05771); assay: Inhibition of PKCbeta (unknown origin) at 30 uM
[30] = target: Dual specificity mitogen-activated protein kinase kinase 4 (Homo sapiens) (UniProt P45985); assay: Inhibition of MKK4 (unknown origin) at 30 uM
[31] = Cmax in mouse at 4 mg/kg, po; assay type: ADME, organism-based; set-up: dose 4 mg/kg, route oral; settings: in vivo
PBMC [32] = assay: Antiinflammatory activity in human PBMC assessed as inhibition of LPS-induced IL-6 release incubated for 15 mins prior to LPS-challenge measured after 24 hrs by HTRF assay; assay type: functional, cell-based
[33] = target: RAC-beta serine/threonine-protein kinase (Homo sapiens) (UniProt P31751); assay: Inhibition of AKT2 (unknown origin) at 30 uM
[34] = target: RAC-alpha serine/threonine-protein kinase (Homo sapiens) (UniProt P31749); assay: Inhibition of AKT1 (unknown origin) at 30 uM
Chain of RAC-alpha serine/threonine-protein kinase (Homo sapiens) (P31749 whole entry): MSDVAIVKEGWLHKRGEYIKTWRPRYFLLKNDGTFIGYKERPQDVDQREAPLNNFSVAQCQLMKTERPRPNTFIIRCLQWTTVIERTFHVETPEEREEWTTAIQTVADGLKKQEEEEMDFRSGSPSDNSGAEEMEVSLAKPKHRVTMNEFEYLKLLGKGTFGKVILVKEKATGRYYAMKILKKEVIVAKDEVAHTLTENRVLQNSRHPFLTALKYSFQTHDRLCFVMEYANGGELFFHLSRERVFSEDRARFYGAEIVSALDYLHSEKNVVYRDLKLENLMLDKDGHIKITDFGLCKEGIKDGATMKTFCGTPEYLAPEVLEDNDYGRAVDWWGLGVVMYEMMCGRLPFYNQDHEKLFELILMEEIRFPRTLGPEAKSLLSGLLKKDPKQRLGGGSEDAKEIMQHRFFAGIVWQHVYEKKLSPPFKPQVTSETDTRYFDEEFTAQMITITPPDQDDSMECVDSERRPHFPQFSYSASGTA

Mus musculus [35] = assay: Antiinflammatory activity in mouse assessed as inhibition of LPS-induced IL-6 production at 10 mg/kg, po administered 1 hr prior to LPS challenge measured after 1 hr; assay type: functional
[36] = target: Rho-associated protein kinase 1 (Homo sapiens) (UniProt Q13464); assay: Inhibition of ROCK1 (unknown origin) at 30 uM
Chain of Rho-associated protein kinase 1 (Homo sapiens) (Q13464 2-1354 limits assumed): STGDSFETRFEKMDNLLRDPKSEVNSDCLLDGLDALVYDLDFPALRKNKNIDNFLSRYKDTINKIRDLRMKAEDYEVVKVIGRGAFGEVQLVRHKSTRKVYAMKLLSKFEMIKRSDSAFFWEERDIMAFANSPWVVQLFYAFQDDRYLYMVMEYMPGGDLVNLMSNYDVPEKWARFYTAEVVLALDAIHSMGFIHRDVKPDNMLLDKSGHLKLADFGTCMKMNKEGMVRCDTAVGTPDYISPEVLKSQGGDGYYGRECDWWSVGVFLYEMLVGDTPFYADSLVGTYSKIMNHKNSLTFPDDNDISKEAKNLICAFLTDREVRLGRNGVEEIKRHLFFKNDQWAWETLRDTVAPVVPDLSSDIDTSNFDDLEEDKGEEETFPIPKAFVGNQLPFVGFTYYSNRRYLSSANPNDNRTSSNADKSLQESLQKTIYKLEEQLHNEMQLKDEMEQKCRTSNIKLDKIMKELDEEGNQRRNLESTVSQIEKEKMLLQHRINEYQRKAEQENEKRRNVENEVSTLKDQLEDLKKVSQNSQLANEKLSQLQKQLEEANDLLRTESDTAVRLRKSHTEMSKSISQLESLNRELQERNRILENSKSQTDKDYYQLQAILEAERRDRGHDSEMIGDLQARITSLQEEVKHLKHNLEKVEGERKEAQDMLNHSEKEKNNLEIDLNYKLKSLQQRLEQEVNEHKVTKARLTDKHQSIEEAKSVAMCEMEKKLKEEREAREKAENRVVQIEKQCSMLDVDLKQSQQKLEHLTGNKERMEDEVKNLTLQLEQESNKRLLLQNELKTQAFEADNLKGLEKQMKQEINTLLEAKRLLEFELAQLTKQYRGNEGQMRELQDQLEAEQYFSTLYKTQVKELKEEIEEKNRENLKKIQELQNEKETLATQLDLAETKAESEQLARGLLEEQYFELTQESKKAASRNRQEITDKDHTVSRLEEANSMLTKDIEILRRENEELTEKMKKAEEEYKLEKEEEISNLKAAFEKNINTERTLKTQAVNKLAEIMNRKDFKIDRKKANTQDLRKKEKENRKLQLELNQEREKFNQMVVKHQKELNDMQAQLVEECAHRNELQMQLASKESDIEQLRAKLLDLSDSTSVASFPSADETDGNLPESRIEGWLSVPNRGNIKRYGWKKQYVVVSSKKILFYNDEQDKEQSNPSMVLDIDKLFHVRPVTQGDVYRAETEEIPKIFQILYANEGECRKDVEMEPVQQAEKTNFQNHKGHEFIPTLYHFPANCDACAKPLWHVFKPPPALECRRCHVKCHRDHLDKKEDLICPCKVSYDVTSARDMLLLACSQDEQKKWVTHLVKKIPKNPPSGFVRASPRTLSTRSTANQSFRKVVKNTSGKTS

Mus musculus [37] = assay: Toxicity in mouse assessed as change in body weight at 30 mg/kg, po qd administered every other day for 20 days relative to untreated control; assay type: organism-based; set-up: dose 30 mg/kg, route oral; settings: in vivo, 480 h
Mus musculus [38] = assay: Antiinflammatory activity in mouse assessed as inhibition of LPS-induced TNF-alpha production at 10 mg/kg, po administered 1 hr prior to LPS challenge measured after 1 hr; assay type: functional
[39] = target: Dual specificity mitogen-activated protein kinase kinase 6 (Homo sapiens) (UniProt P52564); assay: Inhibition of MKK6 (unknown origin) at 30 uM
Chain of Dual specificity mitogen-activated protein kinase kinase 6 (Homo sapiens) (P52564 whole entry): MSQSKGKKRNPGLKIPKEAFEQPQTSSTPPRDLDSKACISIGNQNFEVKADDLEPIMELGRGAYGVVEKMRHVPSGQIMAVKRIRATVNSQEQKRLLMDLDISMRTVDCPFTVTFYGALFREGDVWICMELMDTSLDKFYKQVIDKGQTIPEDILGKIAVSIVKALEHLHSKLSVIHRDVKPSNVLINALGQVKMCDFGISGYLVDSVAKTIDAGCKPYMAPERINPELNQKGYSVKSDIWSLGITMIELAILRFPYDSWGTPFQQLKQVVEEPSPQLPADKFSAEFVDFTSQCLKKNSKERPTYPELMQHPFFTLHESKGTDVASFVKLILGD

[40] = target: Tyrosine-protein kinase JAK3 (Homo sapiens) (UniProt P52333); assay: Inhibition of JAK3 (unknown origin) at 30 uM
[41] = target: Inhibitor of nuclear factor kappa-B kinase subunit beta (Homo sapiens) (UniProt O14920); assay: Inhibition of IKKbeta (unknown origin) at 30 uM
[42] = target: Mitogen-activated protein kinase 12 (Homo sapiens) (UniProt P53778); assay: Inhibition of p38gamma (unknown origin) at 30 uM
[43] = target: RAC-gamma serine/threonine-protein kinase (Homo sapiens) (UniProt Q9Y243); assay: Inhibition of AKT3 (unknown origin) at 30 uM
[44] = Volume of distribution at steady state in mouse at 2 mg/kg, iv; assay type: ADME, organism-based; set-up: dose 2 mg/kg, route intravenous; settings: in vivo, read-out: Vdss

For `O=C(Nc1ccc2c(c1)B(O)OC2)c1c(C(F)(F)F)ccc(Cl)c1F`, the inhibition [1] was “inactive”, the IC50 (PBMC [2]) was greater than 100 µM and the inhibition [3] was “inactive”. The inhibition [4] was “inactive”, the inhibition [5] was “inactive” and the clearance [6] was 0.683 mL/min/kg. For the same compound, the inhibition [7] was “inactive”, the inhibition (Mus musculus [8]) was “Active” and the inhibition [9] was “inactive”. The inhibition [10] was “inactive”, the inhibition [11] was “inactive” and the inhibition [12] was “inactive”. For the same compound, the inhibition [13] was “inactive”, the inhibition [14] was “inactive” and the inhibition [15] was “inactive”. The inhibition [16] was “inactive”, the inhibition [17] was “inactive” and the inhibition [18] was “inactive”. For the same compound, the inhibition [19] was “inactive”, the inhibition in vivo at 30 mg/kg (Mus musculus [20]) was 68% and the inhibition [21] was “inactive”. For the same compound, the inhibition [22] was “inactive”, the Tmax [23] was 4 h and the inhibition [24] was “inactive”. The inhibition [25] was “inactive”, the inhibition [26] was “inactive” and the inhibition [27] was “inactive”. For the same compound, the half-life [28] was 7.85 h, the inhibition [29] was “inactive” and the inhibition [30] was “inactive”. For the same compound, the Cmax [31] was 5650 ng/mL, the IC50 (PBMC [32]) was 0.32 µM and the inhibition [33] was “inactive”. For the same compound, the inhibition [34] was “inactive”, the inhibition in vivo at 10 mg/kg (Mus musculus [35]) was 75% and the inhibition [36] was “inactive”. The Activity (Mus musculus [37]) was “Non-toxic”, the inhibition in vivo at 10 mg/kg (Mus musculus [38]) was 60% and the inhibition [39] was “inactive”. The inhibition [40] was “inactive”, the inhibition [41] was “inactive” and the inhibition [42] was “inactive”. The inhibition [43] was “inactive” and the Vd [44] was 0.41 L/kg.
